Experimental data: PubChem BioAssay (NCI)
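Values below derive from 48-hour exposures of cells grown in 96-well plates, with endpoints linearly interpolated between the two concentrations bracketing the appropriate inhibition level. GI50 marks 50% less growth. TGI denotes the concentration required for complete inhibition of growth.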

What was measured:
Assay in all cases: NCI-60 cell line screen, 48 h
MOLT-4 leukemia = test system: MOLT-4 leukemia
CCRF-CEM leukemia = test system: CCRF-CEM leukemia
HL-60(TB) leukemia = test system: HL-60(TB) leukemia
COLO 205 colon = test system: COLO 205 colon
RPMI-8226 leukemia = test system: RPMI-8226 leukemia
IGROV1 ovarian = test system: IGROV1 ovarian
SF-295 CNS = test system: SF-295 CNS
OVCAR-4 ovarian = test system: OVCAR-4 ovarian
UACC-257 melanoma = test system: UACC-257 melanoma
SK-MEL-2 melanoma = test system: SK-MEL-2 melanoma
UACC-62 melanoma = test system: UACC-62 melanoma
NCI-H522 lung = test system: NCI-H522 lung
HCC-2998 colon = test system: HCC-2998 colon
HOP-62 NSCLC = test system: HOP-62 NSCLC
HS 578T breast = test system: HS 578T breast
786-0 renal = test system: 786-0 renal
NCI-H23 lung = test system: NCI-H23 lung
M14 melanoma = test system: M14 melanoma
RXF 393 renal = test system: RXF 393 renal
DU-145 prostate = test system: DU-145 prostate
A549 NSCLC = test system: A549 NSCLC
MDA-MB-231 breast = test system: MDA-MB-231 breast
OVCAR-3 ovarian = test system: OVCAR-3 ovarian
SR leukemia = test system: SR leukemia
MALME-3M melanoma = test system: MALME-3M melanoma
SW-620 colon = test system: SW-620 colon
SK-MEL-28 melanoma = test system: SK-MEL-28 melanoma
SNB-19 CNS = test system: SNB-19 CNS
K-562 leukemia = test system: K-562 leukemia
SK-OV-3 ovarian = test system: SK-OV-3 ovarian
T-47D breast = test system: T-47D breast
A498 renal = test system: A498 renal
LOX IMVI melanoma = test system: LOX IMVI melanoma
SF-268 CNS = test system: SF-268 CNS
HCT-116 colon = test system: HCT-116 colon
HOP-92 NSCLC = test system: HOP-92 NSCLC
MCF7 breast = test system: MCF7 breast
KM12 colon = test system: KM12 colon
NCI-H460 lung = test system: NCI-H460 lung
SNB-75 CNS = test system: SNB-75 CNS
SN12C renal = test system: SN12C renal
ACHN renal = test system: ACHN renal
OVCAR-5 ovarian = test system: OVCAR-5 ovarian
SF-539 CNS = test system: SF-539 CNS
OVCAR-8 ovarian = test system: OVCAR-8 ovarian
UO-31 renal = test system: UO-31 renal
BT-549 breast = test system: BT-549 breast
MDA-MB-435 = test system: MDA-MB-435
TK-10 renal = test system: TK-10 renal
NCI-H226 lung = test system: NCI-H226 lung
SK-MEL-5 melanoma = test system: SK-MEL-5 melanoma
U251 CNS = test system: U251 CNS
HT29 colon = test system: HT29 colon
NCI/ADR-RES ovarian = test system: NCI/ADR-RES ovarian
PC-3 prostate = test system: PC-3 prostate
HCT-15 colon = test system: HCT-15 colon
CAKI-1 renal = test system: CAKI-1 renal

## CC(C)CNC(=O)c1ccc(NC(=O)N(CC(C)C)C(=O)c2ccc(N)c(OCCCN)c2)c(OCCCN=C(N)N)c1
MOLT-4 leukemia
  GI50: > 62.5 µM
  TGI: > 62.5 µM
CCRF-CEM leukemia
  GI50: > 62.5 µM
  TGI: > 62.5 µM
HL-60(TB) leukemia
  GI50: > 62.5 µM
  TGI: > 62.5 µM
COLO 205 colon
  GI50: > 62.5 µM
  TGI: > 62.5 µM
RPMI-8226 leukemia
  GI50: > 62.5 µM
  TGI: > 62.5 µM
IGROV1 ovarian
  GI50: > 62.5 µM
  TGI: > 62.5 µM
SF-295 CNS
  GI50: > 62.5 µM
  TGI: > 62.5 µM
OVCAR-4 ovarian
  GI50: > 62.5 µM
  TGI: > 62.5 µM
UACC-257 melanoma
  GI50: > 62.5 µM
  TGI: > 62.5 µM
SK-MEL-2 melanoma
  GI50: > 62.5 µM
  TGI: > 62.5 µM
UACC-62 melanoma
  GI50: > 62.5 µM
  TGI: > 62.5 µM
NCI-H522 lung
  GI50: > 62.5 µM
  TGI: > 62.5 µM
HCC-2998 colon
  GI50: > 62.5 µM
  TGI: > 62.5 µM
HOP-62 NSCLC
  GI50: > 62.5 µM
  TGI: > 62.5 µM
HS 578T breast
  GI50: > 62.5 µM
  TGI: > 62.5 µM
786-0 renal
  GI50: > 62.5 µM
  TGI: > 62.5 µM
NCI-H23 lung
  GI50: > 62.5 µM
  TGI: > 62.5 µM
M14 melanoma
  GI50: > 62.5 µM
  TGI: > 62.5 µM
RXF 393 renal
  GI50: > 62.5 µM
  TGI: > 62.5 µM
DU-145 prostate
  GI50: > 62.5 µM
  TGI: > 62.5 µM
A549 NSCLC
  GI50: > 62.5 µM
  TGI: > 62.5 µM
MDA-MB-231 breast
  GI50: > 62.5 µM
  TGI: > 62.5 µM
OVCAR-3 ovarian
  GI50: > 62.5 µM
  TGI: > 62.5 µM
SR leukemia
  GI50: > 62.5 µM
  TGI: > 62.5 µM
MALME-3M melanoma
  GI50: > 62.5 µM
  TGI: > 62.5 µM
SW-620 colon
  GI50: > 62.5 µM
  TGI: > 62.5 µM
SK-MEL-28 melanoma
  GI50: > 62.5 µM
  TGI: > 62.5 µM
SNB-19 CNS
  GI50: > 62.5 µM
  TGI: > 62.5 µM
K-562 leukemia
  GI50: > 62.5 µM
  TGI: > 62.5 µM
SK-OV-3 ovarian
  GI50: > 62.5 µM
  TGI: > 62.5 µM
T-47D breast
  GI50: > 62.5 µM
  TGI: > 62.5 µM
A498 renal
  GI50: > 62.5 µM
  TGI: > 62.5 µM
LOX IMVI melanoma
  GI50: > 62.5 µM
  TGI: > 62.5 µM
SF-268 CNS
  GI50: > 62.5 µM
  TGI: > 62.5 µM
HCT-116 colon
  GI50: > 62.5 µM
  TGI: > 62.5 µM
HOP-92 NSCLC
  GI50: > 62.5 µM
  TGI: > 62.5 µM
MCF7 breast
  GI50: > 62.5 µM
  TGI: > 62.5 µM
KM12 colon
  GI50: > 62.5 µM
  TGI: > 62.5 µM
NCI-H460 lung
  GI50: > 62.5 µM
  TGI: > 62.5 µM
SNB-75 CNS
  GI50: > 62.5 µM
  TGI: > 62.5 µM
SN12C renal
  GI50: > 62.5 µM
  TGI: > 62.5 µM
ACHN renal
  GI50: > 62.5 µM
  TGI: > 62.5 µM
OVCAR-5 ovarian
  GI50: > 62.5 µM
  TGI: > 62.5 µM
SF-539 CNS
  GI50: > 62.5 µM
  TGI: > 62.5 µM
OVCAR-8 ovarian
  GI50: > 62.5 µM
  TGI: > 62.5 µM
UO-31 renal
  GI50: > 62.5 µM
  TGI: > 62.5 µM
BT-549 breast
  GI50: > 62.5 µM
  TGI: > 62.5 µM
MDA-MB-435
  GI50: > 62.5 µM
  TGI: > 62.5 µM
TK-10 renal
  GI50: > 62.5 µM
  TGI: > 62.5 µM
NCI-H226 lung
  GI50: > 62.5 µM
  TGI: > 62.5 µM
SK-MEL-5 melanoma
  GI50: > 62.5 µM
  TGI: > 62.5 µM
U251 CNS
  GI50: > 62.5 µM
  TGI: > 62.5 µM
HT29 colon
  GI50: > 62.5 µM
  TGI: > 62.5 µM
NCI/ADR-RES ovarian
  GI50: > 62.5 µM
  TGI: > 62.5 µM
PC-3 prostate
  GI50: > 62.5 µM
  TGI: > 62.5 µM
HCT-15 colon
  GI50: > 62.5 µM
  TGI: > 62.5 µM

## O=C(Cc1ccc(OCc2ccccc2)cc1)NCc1ccc2c(c1)OCO2
MOLT-4 leukemia
  GI50: > 100 µM
  TGI: > 100 µM
CCRF-CEM leukemia
  GI50: > 100 µM
  TGI: > 100 µM
HL-60(TB) leukemia
  GI50: 9.3 µM
  TGI: > 100 µM
COLO 205 colon
  GI50: 14.4 µM
  TGI: > 100 µM
RPMI-8226 leukemia
  GI50: > 100 µM
  TGI: > 100 µM
IGROV1 ovarian
  GI50: > 100 µM
  TGI: > 100 µM
SF-295 CNS
  GI50: 64.4 µM
  TGI: > 100 µM
OVCAR-4 ovarian
  GI50: > 100 µM
  TGI: > 100 µM
UACC-257 melanoma
  GI50: > 100 µM
  TGI: > 100 µM
UACC-62 melanoma
  GI50: 14.3 µM
  TGI: > 100 µM
NCI-H522 lung
  GI50: > 100 µM
  TGI: > 100 µM
HCC-2998 colon
  GI50: > 100 µM
  TGI: > 100 µM
HOP-62 NSCLC
  GI50: 6.98 µM
  TGI: > 100 µM
HS 578T breast
  GI50: 9.82 µM
  TGI: > 100 µM
786-0 renal
  GI50: 30.3 µM
  TGI: > 100 µM
NCI-H23 lung
  GI50: > 100 µM
  TGI: > 100 µM
M14 melanoma
  GI50: 7.71 µM
  TGI: > 100 µM
RXF 393 renal
  GI50: 5.18 µM
  TGI: > 100 µM
DU-145 prostate
  GI50: > 100 µM
  TGI: > 100 µM
A549 NSCLC
  GI50: > 100 µM
  TGI: > 100 µM
MDA-MB-231 breast
  GI50: 59 µM
  TGI: > 100 µM
OVCAR-3 ovarian
  GI50: > 100 µM
  TGI: > 100 µM
SR leukemia
  GI50: 5.23 µM
  TGI: > 100 µM
MALME-3M melanoma
  GI50: 29.2 µM
  TGI: > 100 µM
SW-620 colon
  GI50: 7.14 µM
  TGI: > 100 µM
SK-MEL-28 melanoma
  GI50: > 100 µM
  TGI: > 100 µM
SNB-19 CNS
  GI50: 41.9 µM
  TGI: > 100 µM
K-562 leukemia
  GI50: 4.64 µM
  TGI: > 100 µM
SK-OV-3 ovarian
  GI50: 8.18 µM
  TGI: > 100 µM
T-47D breast
  GI50: 48.3 µM
  TGI: > 100 µM
CAKI-1 renal
  GI50: > 100 µM
  TGI: > 100 µM
A498 renal
  GI50: > 100 µM
  TGI: > 100 µM
SF-268 CNS
  GI50: 6.72 µM
  TGI: > 100 µM
HCT-116 colon
  GI50: 30.1 µM
  TGI: > 100 µM
MCF7 breast
  GI50: 5.43 µM
  TGI: > 100 µM
KM12 colon
  GI50: 10.8 µM
  TGI: > 100 µM
NCI-H460 lung
  GI50: > 100 µM
  TGI: > 100 µM
SNB-75 CNS
  GI50: 2.17 µM
  TGI: 6.53 µM
SN12C renal
  GI50: > 100 µM
  TGI: > 100 µM
ACHN renal
  GI50: > 100 µM
  TGI: > 100 µM
OVCAR-5 ovarian
  GI50: > 100 µM
  TGI: > 100 µM
SF-539 CNS
  GI50: 9.11 µM
  TGI: > 100 µM
OVCAR-8 ovarian
  GI50: > 100 µM
  TGI: > 100 µM
UO-31 renal
  GI50: > 100 µM
  TGI: > 100 µM
BT-549 breast
  GI50: > 100 µM
  TGI: > 100 µM
MDA-MB-435
  GI50: 2.32 µM
  TGI: 5.93 µM
TK-10 renal
  GI50: > 100 µM
  TGI: > 100 µM
NCI-H226 lung
  GI50: > 100 µM
  TGI: > 100 µM
SK-MEL-5 melanoma
  GI50: 70.7 µM
  TGI: > 100 µM
HT29 colon
  GI50: 37.9 µM
  TGI: > 100 µM
NCI/ADR-RES ovarian
  GI50: 9.26 µM
  TGI: > 100 µM
PC-3 prostate
  GI50: > 100 µM
  TGI: > 100 µM
HCT-15 colon
  GI50: 5.31 µM
  TGI: > 100 µM
